Values quoted from earlier work in patent US6811840B1, “Decorative transfer process” (Stahls' Inc., priority 1996, dated 2004).

SMILES | solubility in water (in words) | solubility in water (at 20° C.)
CCCCCNc1ccc(NCCCCC)c2c1C(=O)c1ccccc1C2=O [Oil Blue N] | insoluble in water | 
CCCCNc1ccc(NCCCC)c2c1C(=O)c1ccccc1C2=O [Sudan Blue 670] |  | less than 1 gram of dye per liter of water
Oc1ccc2ccccc2c1N=Nc1ccccc1 [Sudan Orange 220] | insoluble in water | 

Continued, in another order:

solubility in water (in words) | SMILES | solubility in water (at 20° C.)
insoluble in water | Cc1ccccc1/N=N/c1ccc(/N=N/c2c(O)ccc3ccccc23)c(C)c1 [Oil Red 234] | 
insoluble in water | CC1(C)Nc2cccc3c(N=Nc4ccc(N=Nc5ccccc5)c5ccccc45)ccc(c23)N1 [Sudan Black X60] | 
